The test system of series [1] is HCV replicons (NS3-NS5B regions of HCV type Ib) in Huh-7 luc/neo cells. Put plainly: HCV replicon assay (Huh-Luc luciferase reporter). Format: cell-based. Particulars: Hepatitis C virus, Huh-7, 72 h; Huh-Luc replicon cells, three days incubation, luciferase activity; read-out: EC50. The method, then:
The in vitro antiviral activity against HCV of the compounds of formula (I) was tested in a cellular HCV replicon system based on Lohmann et al. (1999) Science 285:110-113, with the further modifications described by Krieger et al. (2001) Journal of Virology 75: 4614-4624, which is further exemplified in the examples section. This model, while not a complete infection model for HCV, is widely accepted as the most robust and efficient model of autonomous HCV RNA replication currently available. […] It will be appreciated that it is important to distinguish between compounds that specifically interfere with HCV functions from those that exert cytotoxic or cytostatic effects in the HCV replicon model, and as a consequence cause a decrease in HCV RNA or linked reporter enzyme concentration. Assays are known in the field for the evaluation of cellular cytotoxicity based for example on the activity of mitochondrial enzymes using fluorogenic redox dyes such as resazurin. Furthermore, cellular counter screens exist for the evaluation of non-selective inhibition of linked reporter gene activity, such as firefly luciferase. Appropriate cell types can be equipped by stable transfection with a luciferase reporter gene whose expression is dependent on a constitutively active gene promoter, and such cells can be used as a counter-screen to eliminate non-selective inhibitors.
The compounds of formula (I) were examined for activity in the inhibition of HCV RNA replication in a cellular assay. […] The cellular assay was based on a bicistronic expression construct, as described by Lohmann et al. (1999) Science vol. 285 pp. 110-113 with modifications described by Krieger et al. (2001) Journal of Virology 75: 4614-4624, in a multi-target screening strategy. In essence, the method was as follows.
The assay utilized the stably transfected cell line Huh-7 luc/neo (hereafter referred to as Huh-Luc). This cell line harbors an RNA encoding a bicistronic expression construct comprising the wild type NS3-NS5B regions of HCV type Ib translated from an Internal Ribosome Entry Site (IRES) from encephalomyocarditis virus (EMCV), preceded by a reporter portion (FfL-luciferase), and a selectable marker portion (neo^R, neomycine phosphotransferase). The construct is bordered by 5′ and 3′ NTRs (non-translated regions) from HCV type Ib. Continued culture of the replicon cells in the presence of G418 (neo^R) is dependent on the replication of the HCV RNA. The stably transfected replicon cells that express HCV RNA, which replicates autonomously and to high levels, encoding inter alia luciferase, are used for screening the antiviral compounds.
The replicon cells were plated in 384 well plates in the presence of the test and control compounds which were added in various concentrations. Following an incubation of three days, HCV replication was measured by assaying luciferase activity (using standard luciferase assay substrates and reagents and a Perkin Elmer ViewLux™ ultraHTS microplate imager). Replicon cells in the control cultures have high luciferase expression in the absence of any inhibitor. The inhibitory activity of the compound on luciferase activity was monitored on the Huh-Luc cells, enabling a dose-response curve for each test compound.
Background: In antiviral work, replicon cells carry a viral genome segment that copies itself.

Series [2] is described as follows: In vitro metabolic blocking by ritonavir in human liver microsomes. In kind it is in vitro ADME. Particulars: 3 μM test compound, human liver microsomes 1 mg/ml, 37° C., % of initial concentration. The procedure:
Compound nr 11 of Table 1 was tested in a metabolic blocking experiment using 3 μM test compound together with 10 μM ritonavir acting as booster.
The test compound and ritonavir were added to human liver microsomes (protein concentration 1 mg/ml) suspended in potassium phosphate buffer (pH=7.4), to get final reaction mixture concentrations of 3 μM test compound and 10 μM ritonavir. In the non-boosted parallel reactions, ritonavir was not added. Boiled human liver microsomes were used for blank experiments. After addition (in a 1:3 ratio) of a cofactor mixture consisting of β-nicotinamide adenine dinucleotide phosphate (β-NADP, 0.5 mg/ml, 653.2 μM), D-Glucose-6-phosphate (2 mg/ml, 7.1 mM), Glucose-6-phosphate dehydrogenase (1.5 U/ml) in 2% NaHCO3, the reaction mixture was incubated at 37° C. for 30 or 120 minutes after which the reaction was stopped by increasing the temperature to 95° C. Test compound concentrations were determined using HPLC-MS.
Values are percentages of the test compound detected after the indicated incubation times as compared to the initial test compound concentration. Each value is the mean of the results of two independent experiments.
For orientation: Liver microsomes are vesicles of endoplasmic reticulum, rich in cytochrome P450 enzymes.

The structures appear in SMILES notation.

What is called EC50 is the midpoint of the concentration-response curve.

In the case of `COc1ccc2c(O[C@@H]3C[C@H]4C(=O)N[C@]5(C(=O)NS(=O)(=O)C6CC6)C[C@H]5/C=C\CCCCCCC(=O)N4C3)cc(-c3nc(C(C)C)cs3)nc2c1` [Compound 11, N-[[18-[2-[4-(isopropyl)thiazol-2-yl]-7-methoxyquinolin-4-yloxy]-2,15-dioxo-3,16-diazatricyclo[14.3.0.0^4,6]nonadec-7-en-4-yl]carbonyl](cyclopropyl)sulfonamide], the EC50 in series [1] worked out at 0.017 µM. Besides, the “% Detected Compound” value stood at 28% in series [2] (30′ incubation, No Booster); 79% in series [2] (30′ incubation, with 10 μM ritonavir); 0% in series [2] (120′ incubation, No Booster); 91% in series [2] (120′ incubation, with 10 μM ritonavir).

The values above are taken from US7989471B2, “Macrocyclic inhibitors of hepatitis C virus” (Tibotec Pharmaceuticals Ltd., priority 2005, dated 2011).
